Key:
[1] = molecular target: T1, Acetylcholinesterase from Electrophorus electricus (Electrophorus electricus, UniProt O42275); experiment: biochemical; format: biochemical; conditions: for inhibition at 1000 µM: 1 mM solution of the tested compound, read-out: Activity [%] (inhibition percentage of AChE); for IC50: mean ± SD of three experiments, read-out: AChE IC50
T1 construct: purchased Sigma-Aldrich, Hamburg, Germany
Protocol: (§1) AChE and BChE inhibitory activity was measured using the microplate assay described by Ellman et al. [68] with the modifications added by López et al. [36]. The compounds were tested at concentrations between 10^−3 and 10^−8 M. First, all compounds were dissolved in 1% DMSO in a concentration of 1 mg/mL.
(§2) Incubation of the plates was performed at room temperature for 30 min. Then, 100 μL of substrate solution were added to start the enzymatic reaction. […] Enzyme activity was calculated as an inhibition percentage compared to an assay including buffer instead of an inhibitor. […] All data were analyzed with the software package Prism 3 (Graph Pad Inc., San Diego, CA, USA).

[2] = molecular target: T2, butyrylcholinesterase from equine serum (Equus caballus, UniProt P81908); experiment: biochemical; conditions: for inhibition at 1000 µM: 1 mM solution of the tested compound, read-out: Activity [%] (inhibition percentage of BChE); for IC50: mean ± SD of three experiments, read-out: BChE IC50
T2 construct: butyrylcholinesterase from equine serum; purchased Sigma-Aldrich, Hamburg, Germany; host or cells: equine serum
T2 sequence (P81908 whole entry): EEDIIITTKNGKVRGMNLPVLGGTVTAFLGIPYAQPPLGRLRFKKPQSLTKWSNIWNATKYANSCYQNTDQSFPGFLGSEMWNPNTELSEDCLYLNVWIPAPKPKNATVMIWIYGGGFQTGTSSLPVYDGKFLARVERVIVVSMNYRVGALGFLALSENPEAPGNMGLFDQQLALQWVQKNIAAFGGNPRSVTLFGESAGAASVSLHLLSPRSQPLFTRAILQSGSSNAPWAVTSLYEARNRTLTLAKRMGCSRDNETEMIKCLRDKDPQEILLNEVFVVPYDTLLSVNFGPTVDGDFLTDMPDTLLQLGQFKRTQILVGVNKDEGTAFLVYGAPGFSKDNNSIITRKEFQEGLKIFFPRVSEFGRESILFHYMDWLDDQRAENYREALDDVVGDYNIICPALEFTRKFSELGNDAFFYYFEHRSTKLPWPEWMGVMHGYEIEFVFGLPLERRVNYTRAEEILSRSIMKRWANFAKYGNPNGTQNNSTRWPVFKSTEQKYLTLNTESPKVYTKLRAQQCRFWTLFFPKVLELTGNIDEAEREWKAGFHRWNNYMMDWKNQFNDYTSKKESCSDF
Protocol: as §1, §2

[3] = test system: Neuro-2a cells; experiment: MTT cytotoxicity, Neuro-2a; format: cell-based, murine; conditions: Mus musculus, N2a; MTT, 72 h exposure; read-out: Neuro-2a IC50
[4] = test system: SH-SY5Y cells; experiment: MTT cytotoxicity, SH-SY5Y; format: cell-based, human; conditions: Homo sapiens, SH-SY5Y; MTT, 72 h exposure; read-out: SH-SY5Y IC50
[5] = test system: CCL-1 cells; experiment: MTT cytotoxicity, CCL-1 normal fibroblasts; format: cell-based, murine; conditions: Mus musculus, Fibroblast; MTT, 72 h exposure; read-out: CCL-1 IC50
[6] = ABTS radical scavenging assay; conditions: 734 nm after 5 min
Protocol: These compounds were also tested for their antioxidant activities by using the ABTS [2,2′-azinobis (3-ethylbenzothiazoline-6-sulfonic acid)] cation radical decolorization method (Table 4). The BHT [41] was used for comparison. The ABTS cation radical is produced by oxidation of the ABTS molecule with strong oxidizing agents, such as potassium persulfate in water.
For ABTS assay, the procedure followed the method of Arnao et al. [71] with some modifications. […] The working solution was then prepared by mixing the two stock solutions in equal quantities and allowing them to react for 14 h at room temperature in the dark. […] A fresh ABTS solution was prepared for each assay. […] The ABTS scavenging capacity of the compound was calculated as follows:ABTS radical scavenging activity (%) = ((Abscontr. − Abssample)/Abscontr.) ×100, where Abscontr. is the absorbance of DPPH radical with 300 μL MeOH, Abssample is the absorbance of DPPH radical solution mixed with the sample. […] BHT was used as positive control.

[7] = Ferric reducing antioxidant power (FRAP); conditions: 150 μL of 5 mM compound, 30 min, 593 nm, Trolox equivalent
[8] = Lipid peroxidation in linoleic acid system, FTC method; conditions: 10 mM compound, 500 nm
Protocol: The antioxidant activity of studied compounds against lipid peroxidation was measured through ammonium thiocyanate assay as described by Takao et al. [66] with some modifications. […] A 10 μL aliquot of the reaction solution was then added to 200 μL of 70% (v/v) ethanol and 10 μL of 30% (w/v) ammonium thiocyanate. […] Aliquots were assayed every 24 h until the day after the absorbance of the control solution (without compound) reached maximum value. BHT (10 mM) was used as positive control.

[9] = PAMPA-BBB permeability; format: in vitro ADME; conditions: experimentally measured BBB permeability
Text: At the same time, they needed to fulfill the requirement for good BBB permeation in order to achieve sufficient brain exposure. Although transport across the BBB is quite a complex phenomenon, passive diffusion is still the primary route for exogenous substances to access that target. So, the selected compounds were subjected to an in vitro PAMPA-BBB assay, relying on the capacity of the method in distinguishing the candidates with good BBB passive permeabilities. […].
The blood–brain barrier permeabilities were measured by PAMPA Permeability Analyzer (pIONInc, Billerica, MA, USA). The tested compounds and reference standards were prepared as 10 mM stock solutions in DMSO and further diluted in Prisma HT buffer pH 7.4. The experiment followed the BBB Protocol: 200 μL sample’s aliquots in the donor compartment, Brain Sink Buffer aliquots (200 μL) in the acceptor wells, BBB-1 lipid for coating the permeation membranes, “sandwich” assembly with the acceptor plate on top of the donor one, and incubation at temperature 25 °C for 4 h under humidity control without stirring. For permeability assessment, UV spectra of the blank, reference, donor, and acceptor plates were collected at wavelength 250–500 nm. […]. Samples were analyzed in triplicate and average values were reported. […]. Theophylline, corticosterone, and propranolol HCl were used as reference standards to control the quality and consistency of the BBB permeability experiment.

[10] = DPPH radical scavenging activity; conditions: 300 μL of 5 mM compound in MeOH, 30 min, 517 nm
Protocol: The DPPH (2,2-diphenyl-1-picryl-hydrazyl-hydrate) free radical scavenging activity method is based on the neutralization of the DPPH radical by an antioxidant.
Free radical scavenging activity was measured using DPPH method [69, 70] with slight modification. Here, 300 μL of 5 mM solutions of tested compounds in MeOH were added to 2 mL methanolic solution of DPPH (2 mg/mL). […] Results were evaluated as percentage scavenging of radical:DPPH radical scavenging activity (%) = ((Abscontr. − Abssample)/Abscontr.) ×100, where Abscontr. is the absorbance of DPPH radical with 300 μL MeOH, Abssample is the absorbance of DPPH radical solution mixed with sample. BHT was used as positive control.

T1 sequence (O42275 24-633): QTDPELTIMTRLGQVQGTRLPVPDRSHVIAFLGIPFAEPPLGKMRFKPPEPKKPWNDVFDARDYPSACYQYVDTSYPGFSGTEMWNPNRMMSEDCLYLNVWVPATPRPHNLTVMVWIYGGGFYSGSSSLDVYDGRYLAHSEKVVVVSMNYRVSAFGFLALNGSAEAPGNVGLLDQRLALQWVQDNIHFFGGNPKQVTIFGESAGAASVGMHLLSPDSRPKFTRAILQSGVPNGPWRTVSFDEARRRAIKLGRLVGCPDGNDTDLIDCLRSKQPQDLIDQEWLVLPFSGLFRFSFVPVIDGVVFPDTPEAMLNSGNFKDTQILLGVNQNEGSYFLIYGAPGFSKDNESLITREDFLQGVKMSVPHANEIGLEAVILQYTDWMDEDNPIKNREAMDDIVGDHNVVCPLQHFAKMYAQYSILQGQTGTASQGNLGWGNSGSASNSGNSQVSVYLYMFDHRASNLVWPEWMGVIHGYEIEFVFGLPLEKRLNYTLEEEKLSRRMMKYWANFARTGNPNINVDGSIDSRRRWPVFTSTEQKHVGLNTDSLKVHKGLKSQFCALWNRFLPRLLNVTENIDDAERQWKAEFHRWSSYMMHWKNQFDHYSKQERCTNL

Structure (SMILES)	inhibition at 1000 µM [1] [%]	IC50 [1] [µM]	inhibition at 1000 µM [2] [%]	SI BChE ([2]; IC50(AChE)/IC50(BChE))	IC50 [2] [µM]	IC50 [3] [µM]	IC50 [4] [µM]	IC50 [5] [µM]	ABTS Activity [6] [%]	IC50 [6] [µM]	FRAP [7] [μMTE]	Absorbance Day 1 [8]	Absorbance Day 2 [8]	Absorbance Day 3 [8]	Absorbance Day 4 [8]	Absorbance Day 5 [8]	PAMPA BBB −logPe [9]	DPPH Activity [10] [%]
COc1ccc2[nH]cc(/C=N/NC(=O)Cc3c[nH]c4ccccc34)c2c1 [3n, 2-(1H-indol-3-yl)-N’-[(E)-(5-methoxy-1H-indol-3-yl)methylidene]acetohydrazide]	29.2	> 1000	73.7	47.34	21.1 ± 1.48	83.7 ± 8.3	108 ± 9.4	48.2 ± 6.4	≥100	770 ± 60	14.30 ± 0.56	0.85 ± 0.05	0.87 ± 0.07	0.89 ± 0.04	0.90 ± 0.01	0.92 ± 0.06	4.084	40.62 ± 0.83
O=S(=O)(N/N=C/C1CCN(Cc2ccccc2)CC1)c1ccccc1 [5a, N’-[(E)-(1-benzylpiperidin-4-yl)methylidene]benzenesulfonohydrazide]	77	163 ± 10.7	79.4	–	259 ± 4.9	> 300	142 ± 13.1	157 ± 8.5	43.80 ± 0.23	> 5000	17.48 ± 0.90	0.83 ± 0.02	0.88 ± 0.08	0.89 ± 0.04	1.00 ± 0.04	1.10 ± 0.05	4.749	6.56 ± 0.78
